# Experimental data from patent EP0144809A2, “Complex platinum compounds of substituted 5,8-dihydroxy-1,4 naphtoquinones, process for their preparation and their use” (NATEC Institut für naturwissenschaftlich- technische …, priority 1983, dated 1985).
# System: Ehrlich Ascites Tumor
# Assay: Standard test with Ehrlich ascites tumor in ICR mice (antitumor activity)
# Type: in vivo, ICR-Mäusen
# Settings: Dose 6 mg Pt-Komplex pro kg, intraperitoneal on day 1 and day 6; Cure = animals that survived longer than 60 days; two groups (20 mice) for the control
# From the text: Zur Ermittlung der antikarzinogenen Aktivität der erfindungsgemäßen Platinkomplexverbindungen wurde der Standardtest mit dem Ehrlich Ascites Tumor an ICR-Mäusen angewendet. […] Die Tumorzellen sowie die Platinkomplexverbindungen wurden am Tag Null bzw. am 1. und 6. Tag intraperitonal injiziert. Die Resultate wurden in der nachstehenden Tabelle II zusammengestellt.
# Der Terminus "Cure" wurde vom National Cancer Institute, USA, übernommen und bedeutet, wieviele Tiere länger als 60 Tage überlebt haben. Aus den Resultaten geht deutlich hervor, daß die erfindungsgemäßen Platinkomplexverbindungen gegenüber den bekannten Antitumormitteln der Vergleichsbeispiele 1 und 7 eine mindestens gleich gute, meist sogar deutlich bessere Antitumorwirkung zeigen.
structure (smiles),measurement,value
"N.N.[Cl][Pt][Cl] [Positive Kontrolle, cis-Dichloro-diamino-platin(II)]","Anzahl der ""Cures"" pro Tiergruppe",4
